The test system of one test is UMR-106 cells. As to the kind of experiment: Gene expression assay in UMR-106 cells. Type of test: cell-based, rat. On the procedure: UMR-106 cells (ATCC) were incubated with DMEM with 0.2% BSA for 4 h and were then treated with hPTH(1–34) or PCO371 for 1 or 6 h. At 1 or 6 h after adding test compounds, total RNA was isolated by using an RNeasy Plus Kit (Qiagen). cDNA was transcribed from the isolated total RNA by using TaqMan Reverse Transcription Reagents (Thermo Fisher Scientific). mRNA levels were quantified by a real-time PCR system (Thermo Fisher Scientific). The relative quantity of transcripts was calculated by using the comparative threshold cycle (Ct) method and normalized to 18S ribosomal RNA as an internal control. The following cDNA-specific primers and probes were used: Fos (encoded by Fos, Rn02396759_m1), osteocalcin (encoded by Bglap, Rn00566386_g1), receptor activator of nuclear factor-κB ligand (RANKL, encoded by Tnfsf11, Rn00589289_m1), osteoprotegerin (osteoprotegerin, encoded by Tnfrsf11b, Rn00563499_m1) and sclerostin (encoded by Sost, Rn00577971_m1).

Another test addresses T1, endogenous rat PTHR1 (Rattus norvegicus, UniProt P25961).
T1 construct: UMR-106 cells, which natively express rat PTHR1; endogenous in cells; host or cells: UMR-106 (ATCC)
T1 sequence (P25961 27-591): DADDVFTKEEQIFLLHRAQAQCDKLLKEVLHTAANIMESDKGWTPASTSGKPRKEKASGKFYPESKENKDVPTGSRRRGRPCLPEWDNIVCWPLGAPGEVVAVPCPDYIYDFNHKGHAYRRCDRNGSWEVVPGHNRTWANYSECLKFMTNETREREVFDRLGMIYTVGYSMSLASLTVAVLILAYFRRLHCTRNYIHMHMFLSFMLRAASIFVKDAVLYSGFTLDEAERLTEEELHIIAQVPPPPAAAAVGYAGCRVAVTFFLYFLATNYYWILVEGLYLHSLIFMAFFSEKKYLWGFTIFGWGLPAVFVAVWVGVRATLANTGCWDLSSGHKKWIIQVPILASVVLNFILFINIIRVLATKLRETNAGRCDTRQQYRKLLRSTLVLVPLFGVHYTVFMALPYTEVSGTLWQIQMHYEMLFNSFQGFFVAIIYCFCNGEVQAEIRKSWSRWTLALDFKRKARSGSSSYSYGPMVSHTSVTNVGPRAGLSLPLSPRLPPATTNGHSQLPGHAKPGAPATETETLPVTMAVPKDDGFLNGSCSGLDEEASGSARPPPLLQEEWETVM
As to the kind of experiment: cAMP production in UMR-106 cells. In kind it is cell-based. A general note: Cyclic AMP is a second messenger, typically raised through Gs and lowered through Gi signalling.

On to `Cc1cc(N2C(=O)NC(=O)C2(C)C)cc(C)c1CCS(=O)(=O)N1CCC2(CC1)N=C(c1ccc(OC(F)(F)F)cc1)NC2=O` [PCO371, 1-{3,5-dimethyl-4-[2-({4-oxo-2-[4-(trifluoromethoxy)phenyl]-1,3,8-triazaspiro[4.5]dec-1-en-8-yl}sulfonyl)ethyl]phenyl}-5,5-dimethylimidazolidine-2,4-dione], for which the “expression of mRNAs for Fos, osteocalcin and RANKL” value in the test on UMR-106 cells (1 h (Fos) or 6 h) is “dose-dependently increased”. Also, the “expression of mRNAs for osteoprotegerin and sclerostin” value with UMR-106 cells (6 h) was “dose-dependently decreased”. In addition, the cAMP production result on endogenous rat PTHR1 (1 μmol l^−1, 20 min) is given as “did not induce cAMP production”; at endogenous rat PTHR1 (20 min), “induced cAMP production”.

Source of the values: paper PMC5120204, “Identification of an orally active small-molecule PTHR1 agonist for the treatment of hypoparathyroidism” (Nature Communications, 2016).
